Data from US12391679B2, “Benzamide-substituted bicyclic imidazo- and pyrazolo-fused -pyridine, -pyrimide, and -pyridazine compounds for treatment of inflammatory diseases” (ONCO3R Therapeutics BV, priority 2019, dated 2025).

What was measured:
Format in all cases: biochemical
SIK2 = target: T1, SIK2 (Homo sapiens, UniProt Q9H0K1); experiment: ADP-Glo kinase assay, SIK2
T1 construct: purchased ThermoFisher Scientific PV4792
Method in brief: (§1)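 ADP-Glo format, luminescent. Room-temperature kinase reaction lasting 120 min, followed by ATP removal (40 min) and ADP detection (30 min); 10 μM staurosporine serves as full-inhibition control, 1% DMSO as uninhibited control.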

SIK3 = target: T2, SIK3 (Homo sapiens, UniProt Q9Y2K2); experiment: ADP-Glo kinase assay, SIK3
T2 construct: purchased SignalChem S12-11G-100
T2 sequence (Q9Y2K2 59-365 limits assumed): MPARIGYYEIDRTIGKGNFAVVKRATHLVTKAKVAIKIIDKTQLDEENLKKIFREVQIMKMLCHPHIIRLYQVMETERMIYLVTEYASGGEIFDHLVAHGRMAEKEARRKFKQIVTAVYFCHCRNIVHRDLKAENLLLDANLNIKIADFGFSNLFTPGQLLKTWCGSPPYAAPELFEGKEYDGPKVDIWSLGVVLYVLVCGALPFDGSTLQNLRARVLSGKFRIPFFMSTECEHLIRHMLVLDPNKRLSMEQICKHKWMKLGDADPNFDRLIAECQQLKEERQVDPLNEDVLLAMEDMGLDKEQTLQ
Method in brief: as §1

SIK1 = target: T3, SIK1 (Homo sapiens, UniProt P57059); experiment: ADP-Glo kinase assay, SIK1
T3 construct: purchased Carna Biosciences 02-131
T3 sequence (P57059 whole entry): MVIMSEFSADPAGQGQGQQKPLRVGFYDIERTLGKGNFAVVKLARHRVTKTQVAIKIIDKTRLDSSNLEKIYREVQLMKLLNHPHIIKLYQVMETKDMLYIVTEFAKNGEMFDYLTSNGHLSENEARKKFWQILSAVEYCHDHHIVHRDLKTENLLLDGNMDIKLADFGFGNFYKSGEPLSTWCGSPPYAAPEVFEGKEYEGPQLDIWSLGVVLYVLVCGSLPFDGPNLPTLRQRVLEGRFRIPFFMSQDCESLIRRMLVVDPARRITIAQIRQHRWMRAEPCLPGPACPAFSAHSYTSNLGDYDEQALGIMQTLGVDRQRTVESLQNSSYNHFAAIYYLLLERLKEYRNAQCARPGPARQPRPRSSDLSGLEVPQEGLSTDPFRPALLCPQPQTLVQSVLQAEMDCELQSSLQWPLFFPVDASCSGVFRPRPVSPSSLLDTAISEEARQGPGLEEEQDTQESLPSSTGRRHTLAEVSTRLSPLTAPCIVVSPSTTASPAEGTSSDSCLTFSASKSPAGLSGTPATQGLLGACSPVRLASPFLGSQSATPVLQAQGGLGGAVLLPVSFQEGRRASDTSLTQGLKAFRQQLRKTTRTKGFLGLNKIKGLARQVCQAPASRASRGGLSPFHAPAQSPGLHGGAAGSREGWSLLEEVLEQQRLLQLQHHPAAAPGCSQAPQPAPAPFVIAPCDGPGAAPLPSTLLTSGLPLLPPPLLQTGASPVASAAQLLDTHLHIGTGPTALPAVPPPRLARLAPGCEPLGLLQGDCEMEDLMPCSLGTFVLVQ
Method in brief: as §1

T1 sequence (Q9H0K1 whole entry): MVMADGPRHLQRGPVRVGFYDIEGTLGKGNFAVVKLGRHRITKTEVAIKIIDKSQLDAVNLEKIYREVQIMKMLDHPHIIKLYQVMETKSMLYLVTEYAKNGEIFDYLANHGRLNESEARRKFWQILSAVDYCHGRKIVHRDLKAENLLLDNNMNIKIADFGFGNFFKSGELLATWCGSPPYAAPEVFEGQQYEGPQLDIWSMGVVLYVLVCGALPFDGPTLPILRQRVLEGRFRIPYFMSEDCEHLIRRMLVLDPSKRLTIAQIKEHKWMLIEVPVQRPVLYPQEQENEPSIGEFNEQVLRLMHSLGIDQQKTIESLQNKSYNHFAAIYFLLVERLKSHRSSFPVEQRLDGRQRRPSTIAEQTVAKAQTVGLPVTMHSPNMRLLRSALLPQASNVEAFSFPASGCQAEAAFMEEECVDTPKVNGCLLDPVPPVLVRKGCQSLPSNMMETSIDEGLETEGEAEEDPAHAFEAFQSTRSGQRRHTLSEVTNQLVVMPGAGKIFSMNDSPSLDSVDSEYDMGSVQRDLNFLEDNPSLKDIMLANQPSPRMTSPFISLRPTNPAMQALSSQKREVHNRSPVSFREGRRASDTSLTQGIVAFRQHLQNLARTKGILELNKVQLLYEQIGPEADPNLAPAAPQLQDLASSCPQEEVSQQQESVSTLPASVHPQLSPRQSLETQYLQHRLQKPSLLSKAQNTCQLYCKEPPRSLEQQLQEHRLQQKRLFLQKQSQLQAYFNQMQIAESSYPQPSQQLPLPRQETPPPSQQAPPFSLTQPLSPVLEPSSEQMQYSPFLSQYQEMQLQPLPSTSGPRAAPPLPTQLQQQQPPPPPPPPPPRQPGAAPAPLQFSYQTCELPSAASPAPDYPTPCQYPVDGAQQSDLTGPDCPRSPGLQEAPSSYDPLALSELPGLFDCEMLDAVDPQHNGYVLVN

Row | SMILES | IC50 (SIK2) [nM] | IC50 (SIK3) [nM] | IC50 (SIK1) [nM]
1 | COCCNC(=O)C1(c2ccn3c(-c4cc(OC)c(C(=O)NC5CC5)c(OC(F)F)c4)cnc3c2)CC1 [Cpd 142, N-cyclopropyl-2-(difluoromethoxy)-6-methoxy-4-[7-[1-(2-methoxyethylcarbamoyl)cyclopropyl]imidazo[1,2-a]pyridin-3-yl]benzamide] | > 500 | 10 to 100 | > 500
2 | CCN(CC)C(=O)C1(c2ccn3c(-c4cc(OC)c(C(=O)NC5CC5)c(OC(F)F)c4)cnc3c2)CC1 [Cpd 143, N-cyclopropyl-4-[7-[1-(diethylcarbamoyl)cyclopropyl]imidazo[1,2-a]pyridin-3-yl]-2-(difluoromethoxy)-6-methoxy-benzamide] | > 500 | 100 to 500 | > 500
3 | COc1cc(-c2cnc3cc(C4(C(=O)N5CC(O)C5)CC4)ccn23)cc(OC(F)F)c1C(=O)NC1CC1 [Cpd 144, N-cyclopropyl-2-(difluoromethoxy)-4-[7-[1-(3-hydroxyazetidine-1-carbonyl)cyclopropyl]imidazo[1,2-a]pyridin-3-yl]-6-methoxy-benzamide] | > 500 | 10 to 100 | > 500
4 | COc1cc(-c2cnc3cc(C4(CN5CCOCC5)CC4)ccn23)cc(OC(F)F)c1C(=O)NC1CC1 [Cpd 145, N-cyclopropyl-2-(difluoromethoxy)-6-methoxy-4-[7-[1-(morpholinomethyl)cyclopropyl]imidazo[1,2-a]pyridin-3-yl]benzamide] | > 500 | 100 to 500 | > 500
5 | COc1cc(-c2cnc3cc(C4(C(=O)NCCO)CC4)ccn23)cc(OC(F)F)c1C(=O)NC1CC1 [Cpd 147, N-cyclopropyl-2-(difluoromethoxy)-4-[7-[1-(2-hydroxyethylcarbamoyl)cyclopropyl]imidazo[1,2-a]pyridin-3-yl]-6-methoxy-benzamide] | > 500 | 10 to 100 | > 500
6 | CCN(CC)C(C)c1ccn2c(-c3cc(OC)c(C(=O)NC4CC4)c(OC(F)F)c3)cnc2c1 (stereo not drawn) [Cpd 148, N-cyclopropyl-4-[7-[1-(diethylamino)ethyl]imidazo[1,2-a]pyridin-3-yl]-2-(difluoromethoxy)-6-methoxy-benzamide] | > 500 | 10 to 100 | > 500
7 | COc1cc(-c2cnc3cc(C(C)NC(C)C)ccn23)cc(OC(F)F)c1C(=O)NC1CC1 (stereo not drawn) [Cpd 149, N-cyclopropyl-2-(difluoromethoxy)-4-[7-[1-(isopropylamino)ethyl]imidazo[1,2-a]pyridin-3-yl]-6-methoxy-benzamide] | > 500 | 10 to 100 | > 500
8 | COc1cc(-c2cnc3cc(C4(CNC(C)C)CC4)ccn23)cc(OC(F)F)c1C(=O)NC1CC1 [Cpd 151, N-cyclopropyl-2-(difluoromethoxy)-4-[7-[1-[(isopropylamino)methyl]cyclopropyl]imidazo[1,2-a]pyridin-3-yl]-6-methoxy-benzamide] | > 500 | 100 to 500 | > 500
9 | COc1cc(-c2cnc3cc(C(C)N4CC5(COC5)C4)ccn23)cc(OC(F)F)c1C(=O)NC1CC1 (stereo not drawn) [Cpd 152, N-cyclopropyl-2-(difluoromethoxy)-6-methoxy-4-[7-[1-(2-oxa-6-azaspiro[3.3]heptan-6-yl)ethyl]imidazo[1,2-a]pyridin-3-yl]benzamide] | > 500 | 10 to 100 | > 500
10 | COc1cc(-c2cnc3cc(C(C)N4CCCC4)ccn23)cc(OC(F)F)c1C(=O)NC1CC1 (stereo not drawn) [Cpd 153, N-cyclopropyl-2-(difluoromethoxy)-6-methoxy-4-[7-(1-pyrrolidin-1-ylethyl)imidazo[1,2-a]pyridin-3-yl]benzamide] | > 500 | 10 to 100 | > 500
11 | COc1cc(-c2cnc3cc(C(C)N(C)CCO)ccn23)cc(OC(F)F)c1C(=O)NC1CC1 (stereo not drawn) [Cpd 154, N-cyclopropyl-2-(difluoromethoxy)-4-[7-[1-[2-hydroxyethyl(methyl)amino]ethyl]imidazo[1,2-a]pyridin-3-yl]-6-methoxy-benzamide] | > 500 | 10 to 100 | > 500
12 | COc1cc(-c2cnc3cc(C(C)N4CC(O)C4)ccn23)cc(OC(F)F)c1C(=O)NC1CC1 (stereo not drawn) [Cpd 155, N-cyclopropyl-2-(difluoromethoxy)-4-[7-[1-(3-hydroxyazetidin-1-yl)ethyl]imidazo[1,2-a]pyridin-3-yl]-6-methoxy-benzamide] | > 500 | 10 to 100 | > 500
13 | COc1cc(-c2cnc3cc(C(C)N4CC(F)(F)C4)ccn23)cc(OC(F)F)c1C(=O)NC1CC1 (stereo not drawn) [Cpd 156, N-cyclopropyl-4-[7-[1-(3,3-difluoroazetidin-1-yl)ethyl]imidazo[1,2-a]pyridin-3-yl]-2-(difluoromethoxy)-6-methoxy-benzamide] | > 500 | 10 to 100 | > 500
14 | COc1cc(-c2cnc3cc(C(C)N4CCO[C@H](CO)C4)ccn23)cc(OC(F)F)c1C(=O)NC1CC1 (stereo partly drawn) [Cpd 157, N-cyclopropyl-2-(difluoromethoxy)-4-[7-[1-[(2S)-2-(hydroxymethyl)morpholin-4-yl]ethyl]imidazo[1,2-a]pyridin-3-yl]-6-methoxy-benzamide] | > 500 | 10 to 100 | > 500
15 | COc1cc(-c2cnc3cc(C4CN(C(=O)OC(C)(C)C)C4)c(F)cn23)cc(OC(F)F)c1C(=O)NC1CC1 [Cpd 158, tert-butyl 3-[3-[4-(cyclopropylcarbamoyl)-3-(difluoromethoxy)-5-methoxy-phenyl]-6-fluoro-imidazo[1,2-a]pyridin-7-yl]azetidine-1-carboxylate] | 100 to 500 | 10 to 100 | 100 to 500
16 | COc1cc(-c2cnc3cc(C4CCC4)ccn23)cc(OC(F)F)c1C(=O)NC1CC1 [Cpd 159, 4-(7-cyclobutylimidazo[1,2-a]pyridin-3-yl)-N-cyclopropyl-2-(difluoromethoxy)-6-methoxy-benzamide] | 10 to 100 | 0.01 to 10 | 10 to 100
17 | COc1cc(-c2cnc3cc(C(C)(C)CN4CCCC4)ccn23)cc(OC(F)F)c1C(=O)NC1CC1 [Cpd 161, N-cyclopropyl-2-(difluoromethoxy)-4-[7-(1,1-dimethyl-2-pyrrolidin-1-yl-ethyl)imidazo[1,2-a]pyridin-3-yl]-6-methoxy-benzamide] | > 500 | 10 to 100 | > 500
18 | COc1cc(-c2cnc3cc(C4CCCN4C(=O)OC(C)(C)C)ccn23)cc(OC(F)F)c1C(=O)NC1CC1 (stereo not drawn) [Cpd 180, tert-butyl 2-[3-[4-(cyclopropylcarbamoyl)-3-(difluoromethoxy)-5-methoxy-phenyl]imidazo[1,2-a]pyridin-7-yl]pyrrolidine-1-carboxylate] | 100 to 500 | 10 to 100 | 100 to 500
19 | COC(=O)C(C)(C#N)c1ccn2c(-c3cc(OC)c(C(=O)NC4CC4)c(OC(F)F)c3)cnc2c1 (stereo not drawn) [Cpd 184, methyl 2-cyano-2-[3-[4-(cyclopropylcarbamoyl)-3-(difluoromethoxy)-5-methoxy-phenyl]imidazo[1,2-a]pyridin-7-yl]propanoate] | > 500 | > 500 | > 500
20 | COc1cc(-c2cnc3cc(C4COCCN4C(=O)OC(C)(C)C)ccn23)cc(OC(F)F)c1C(=O)NC1CC1 (stereo not drawn) [Cpd 186, tert-butyl 3-[3-[4-(cyclopropylcarbamoyl)-3-(difluoromethoxy)-5-methoxy-phenyl]imidazo[1,2-a]pyridin-7-yl]morpholine-4-carboxylate] | > 500 | > 500 | > 500
21 | COc1cc(-c2cnc3cc(C4COCCN4)ccn23)cc(OC(F)F)c1C(=O)NC1CC1 (stereo not drawn) [Cpd 187, N-cyclopropyl-2-(difluoromethoxy)-6-methoxy-4-(7-morpholin-3-ylimidazo[1,2-a]pyridin-3-yl)benzamide] | > 500 | 10 to 100 | > 500
22 | COc1cc(-c2cnc3cc(C(C)(O)Cn4cncn4)ccn23)cc(OC(F)F)c1C(=O)NC1CC1 (stereo not drawn) [Cpd 194, N-cyclopropyl-2-(difluoromethoxy)-4-[7-[1-hydroxy-1-methyl-2-(1,2,4-triazol-1-yl)ethyl]imidazo[1,2-a]pyridin-3-yl]-6-methoxy-benzamide] | > 500 | 100 to 500 | > 500
23 | COCCN1CCCC1c1ccn2c(-c3cc(OC)c(C(=O)NC4CC4)c(OC(F)F)c3)cnc2c1 (stereo not drawn) [Cpd 196, N-cyclopropyl-2-(difluoromethoxy)-6-methoxy-4-[7-[1-(2-methoxyethyl)pyrrolidin-2-yl]imidazo[1,2-a]pyridin-3-yl]benzamide] | 10 to 100 | 10 to 100 | 100 to 500
24 | COc1cc(-c2cnc3cc(C4CCCN4C(C)C)ccn23)cc(OC(F)F)c1C(=O)NC1CC1 (stereo not drawn) [Cpd 197, N-cyclopropyl-2-(difluoromethoxy)-4-[7-(1-isopropylpyrrolidin-2-yl)imidazo[1,2-a]pyridin-3-yl]-6-methoxy-benzamide] | 10 to 100 | 10 to 100 | 100 to 500
25 | COc1cc(-c2cnc3cc(C4CCCN4C(C)=O)ccn23)cc(OC(F)F)c1C(=O)NC1CC1 (stereo not drawn) [Cpd 198, 4-[7-(1-acetylpyrrolidin-2-yl)imidazo[1,2-a]pyridin-3-yl]-N-cyclopropyl-2-(difluoromethoxy)-6-methoxy-benzamide] | > 500 | 10 to 100 | > 500
26 | COc1cc(-c2cnc3cc(C(O)C4CCC4)ccn23)cc(OC(F)F)c1C(=O)NC1CC1 (stereo not drawn) [Cpd 199, 4-[7-[cyclobutyl(hydroxy)methyl]imidazo[1,2-a]pyridin-3-yl]-N-cyclopropyl-2-(difluoromethoxy)-6-methoxy-benzamide] | > 500 | 10 to 100 | > 500
27 | CCC(O)C(C)(C)c1ccn2c(-c3cc(OC)c(C(=O)NC4CC4)c(OC(F)F)c3)cnc2c1 (stereo not drawn) [Cpd 201, N-cyclopropyl-2-(difluoromethoxy)-4-[7-(2-hydroxy-1,1-dimethyl-butyl)imidazo[1,2-a]pyridin-3-yl]-6-methoxy-benzamide] | > 500 | 10 to 100 | > 500
